Drawing on ChEMBL document CHEMBL5338726, “Characterization of Chlorogenic Acid as a Two-Photon Fluorogenic Probe that Regulates Glycolysis in Tumor Cells under Hypoxia” (J Med Chem, 2023), this text covers Activity and Drug uptake for one compound.

In data set [1] the test system is A-375. Put plainly: Reduction in AMPK phosphorylation level in human A-375 cells at upto 20 uM incubated for 72 hrs under normoxic condition by Western blot analysis. Format: functional, cell-based.
The test system of data set [2] is A-375. In words: Reduction in ATP production in human A-375 cells at upto 10 uM incubated for 6 hrs under normoxia condition by real-time ATP rate assay. Format: functional, cell-based.
Data set [3] has as its system A-375. In words: Radical scavenging activity in 2-ME treated oxidative stress induced tumor bearing BALB/c-nu mouse xenografted in human A-375 cells assessed as increase in fluorescence intensity at 10 uM incubated for 30 mins followed by washout and addition of ascorbic acid by confocal microscopic analysis. The class given is functional, cell-based.
Data set [4] can be described thus: Drug localization in 2-ME treated human A-375 cells assessed as fluorescence in mitochondrial apparatus at 10 uM incubated for 30 mins by mito-tracker green dye based confocal microscopy analysis. The following applies: a-375, 0.5 h. The class given is ADME, cell-based.
The test system of data set [5] is A-375. In words: Radical scavenging activity in 2-ME treated oxidative stress induced tumor bearing BALB/c-nu mouse xenografted in human A-375 cells assessed as increase in fluorescence intensity at 10 uM incubated for 30 mins by confocal microscopic analysis. The class given is functional, cell-based.
For data set [6], the system named is A-375. Put plainly: Antiproliferative activity against human A-375 cells assessed as reduction in colony number at 1.25 to 10 uM measured after 10 days under normoxia condition by crystal violet staining based analysis. Format: functional, cell-based. Particulars: dose 1.25-10 µM, time 10.0 day.
Data set [7] deals with A-375. Put plainly: Reduction in […] O2 level in human A-375 cells at 2.5 to 10 uM incubated for 72 hrs under hypoxia condition by DHE based flow cytometry analysis. The following applies: dose 2.5-10 µM. Format: functional, cell-based.
Data set [8] has as its system A-375. In words: Antitumor activity in human A-375 cells xenografted in BALB/c-nu mouse model assessed as inhibition of tumor growth at 25 to 50 mg/kg, ip administered once daily and measured every 3 days for 18 days. The class given is functional, organism-based. The following applies: dose 25-50 mg/kg, time 18.0 day.
Data set [9] has as its system A-375. In words: Increase in oxygen consumption rate in human A-375 cells at upto 10 uM measured after 6 hrs under normoxia condition. The class given is functional, cell-based.
In data set [10] the test system is A-375. Put plainly: Antitumor activity in human A-375 cells xenografted in BALB/c-nu mouse model assessed as decrease in AMPKalpha phosphorylation 50 mg/kg, ip by Western blot analysis. Format: functional, organism-based.
Data set [11] can be described thus: Toxicity in BALB/c-nu mouse xenografted with human A-375 cells assessed as effect on body weight at 25 to 50 mg/kg, ip administered once daily fo 18 days post treatment. The class given is organism-based. The following applies: in vivo, 432 h, dose 25-50 mg/kg, time 18 day.
Data set [12] concerns A-375. Put plainly: Reduction in AMPK phosphorylation level in human A-375 cells at upto 20 uM incubated for 72 hrs under hypoxic condition by Western blot analysis. Format: functional, cell-based.
Data set [13] concerns A-375. In words: Antiproliferative activity against human A-375 cells assessed as reduction in cell growth at 1.25 to 10 uM incubated for 72 hrs under hypoxia condition by MTT assay. The class given is functional, cell-based. Particulars: dose 1.25-10 µM.
In data set [14] the test system is A-375. Put plainly: Reduction in […] O2 level in human A-375 cells at 2.5 to 10 uM incubated for 72 hrs under normoxia condition by DHE based flow cytometry analysis. Format: functional, cell-based. Particulars: dose 2.5-10 µM.
Data set [15] concerns A-375. In words: Antiproliferative activity against human A-375 cells assessed as reduction in cell growth at 1.25 to 10 uM incubated for 72 hrs under normoxia condition by MTT assay. The following applies: dose 1.25-10 µM. The class given is functional, cell-based.
For data set [16], the system named is A-375. Put plainly: Reduction in extracellular acidification rates in human A-375 cells at upto 10 uM incubated for 6 hrs under hypoxia condition. Format: functional, cell-based.
For data set [17], the system named is A-375. Put plainly: Radical scavenging activity in 2-ME treated oxidative stress induced human A-375 cells assessed as increase in fluorescent signal at 10 uM incubated for 30 mins followed by washout and addition of superoxide dismutase by confocal microscopic analysis. The class given is functional, cell-based.
Data set [18] relates to A-375. In words: Radical scavenging activity in 2-ME treated oxidative stress induced human A-375 cells assessed as increase in fluorescent signal at 10 uM incubated for 30 mins by confocal microscopic analysis. The class given is functional, cell-based.
The test system of data set [19] is A-375. Put plainly: Radical scavenging activity in 2-ME treated oxidative stress induced human A-375 cells assessed as increase in fluorescent signal at 10 uM incubated for 30 mins followed by washout and addition of ascorbic acid by confocal microscopic analysis. Format: functional, cell-based.
Data set [20] has as its system A-375. In words: Reduction in ATP production in human A-375 cells at upto 10 uM incubated for 6 hrs under hypoxia condition by real-time ATP rate assay. Format: functional, cell-based.
Data set [21] concerns A-375. Put plainly: Reduction in extracellular acidification rates in human A-375 cells at upto 10 uM incubated for 6 hrs under normoxia condition. Format: functional, cell-based.
Data set [22] has as its system A-375. Put plainly: Increase in oxygen consumption rate in human A-375 cells at upto 10 uM measured after 6 hrs under hypoxia condition. Format: functional, cell-based.
Data set [23] can be described thus: Drug localization in 2-ME treated human A-375 cells assessed as fluorescence in lysosomes at 10 uM incubated for 30 mins by lyso-tracker red dye based confocal microscopy analysis. Format: ADME, cell-based. Particulars: a-375, 0.5 h.
Data set [24] has as its system A-375. In words: Antiproliferative activity against human A-375 cells assessed as reduction in colony number at 1.25 to 10 uM measured after 10 days under hypoxia condition by crystal violet staining based analysis. The following applies: dose 1.25-10 µM, time 10.0 day. Format: functional, cell-based.

Molecules are shown by their SMILES. Activity calls are given as the source filed them. The calls are words filed in the database; no cut-off is given here.

Consider `O=C(/C=C/c1ccc(O)c(O)c1)O[C@@H]1C[C@](O)(C(=O)O)C[C@@H](O)[C@H]1O` [CHLOROGENIC ACID], for which the result with A-375 [1], in the data set with A-375 [2], with A-375 [3], in the data set with A-375 [6], in the data set on A-375 [9] and with A-375 [14] was inactive. Moreover, the outcome in the data set with A-375 [15], in the data set with A-375 [17], in the data set on A-375 [19] and in the data set with A-375 [21] was inactive. For the same compound, the Drug uptake result in data set [4] is given as “Active”; in data set [23], “Not Active”. Further, the outcome in the data set with A-375 [5], in the data set on A-375 [7], in the data set on A-375 [8], with A-375 [10], in the data set on A-375 [12] and in the data set with A-375 [13] was Active. Moreover, the result in the data set with A-375 [16], in the data set on A-375 [18], with A-375 [20], with A-375 [22] and with A-375 [24] was Active. In addition, the Activity entry in [11] is “Non-Toxic”.
